{
  "source": "paper PMC9636434",
  "about": "“Discovery of small molecule agonists of the Relaxin Family Peptide Receptor 2” (Communications Biology, 2022)",
  "key": {"[1]": {"biological_target": "T1, human RXFP3 (Homo sapiens, UniProt Q9NSD7)", "T1 construct": "host or cells: HEK293T (transient)", "T1 sequence (Q9NSD7 1-469)": "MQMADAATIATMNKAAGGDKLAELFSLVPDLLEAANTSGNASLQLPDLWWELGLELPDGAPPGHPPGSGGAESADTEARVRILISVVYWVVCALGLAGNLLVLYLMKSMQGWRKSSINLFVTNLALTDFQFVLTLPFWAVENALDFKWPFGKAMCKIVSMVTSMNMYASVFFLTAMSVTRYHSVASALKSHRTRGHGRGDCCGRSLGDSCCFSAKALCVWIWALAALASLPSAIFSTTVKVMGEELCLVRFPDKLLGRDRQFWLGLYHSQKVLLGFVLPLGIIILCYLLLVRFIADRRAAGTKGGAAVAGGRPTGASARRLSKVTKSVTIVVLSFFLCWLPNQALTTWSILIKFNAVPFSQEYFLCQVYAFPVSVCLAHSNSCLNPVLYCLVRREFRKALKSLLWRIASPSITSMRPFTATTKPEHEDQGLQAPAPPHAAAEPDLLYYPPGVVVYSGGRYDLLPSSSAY", "assay": "GloSensor cAMP assay in RXFP3 transiently transfected HEK293T cells", "format": "cell-based", "details": "for RLU (cAMP, raw): RXFP3, 0.1 µM isoproterenol, replicates (1)-(4)"}, "[2]": {"assay": "Pharmacokinetic study, 3 mg/kg IV, 10 mg/kg PO and 10 mg/kg PO QD*3, plasma, liver and bone", "format": "in vivo, mouse", "details": "for Plasma concentration: individual values (1)-(3)", "protocol": "The concentration of compound in plasma, liver, and long bones was detected using liquid chromatography tandem mass spectrometry (LC-MS/MS). Samples were collected after a single intraperitoneal (IP) administration at 30 mg/kg, a single intravenous (IV) administration at 3 mg/kg, a single oral (PO) administration at 10 mg/kg, and a daily PO administration for 3 consecutive days at 10 mg/kg. The compound was formulated in 75% PEG300 + 25% of 40% aq. HPBCD for IV and PO administration and in 60% Phosal + 40% PEG300 for IP administration. All tissue samples were homogenized in water at a tissue weight to water volume ratio 1:3.\nIV administration, one 10 mg/kg PO administration and three 10 mg/kg PO administrations (QD*3). a Plasma, b liver and c bone profiles in female mice. The actual concentration (ng/g) is the detected value (ng/mL) multiplied by 4. Drug vehicle is 25% aq. 40% HP-b-CD - 75% PEG300. 3 mice were used per time point. Results are expressed as the mean ± SEM."}},
  "note": "Several values for one entry are separate records, joined by “and”; a condition that tells them apart may be missing. Equal entries are not always repeated. Where two headings read alike, the source gives them in different places.",
  "data": [
    {"smiles": "O=C1Nc2ccc(-c3cc(C(F)(F)F)cc(C(F)(F)F)c3)cc2C(=O)N2CCN(C(=O)COc3ccc(OC(F)(F)F)cc3I)C[C@@H]12", "note": "[compound 6641]", "values": [
      {"measurement": "RLU (cAMP, raw)", "setting": "[1]; Log [M] -4.52", "value": "1801.05 RLU and 1842.11 RLU and 1885.55 RLU and 1904.59 RLU"},
      {"measurement": "RLU (cAMP, raw)", "setting": "[1]; Log [M] -5", "value": "1713.57 RLU and 1782 RLU and 1870.67 RLU and 1664.77 RLU"},
      {"measurement": "RLU (cAMP, raw)", "setting": "[1]; Log [M] -5.52", "value": "1763.55 RLU and 1915.9 RLU and 1776.65 RLU and 1719.52 RLU"},
      {"measurement": "RLU (cAMP, raw)", "setting": "[1]; Log [M] -6", "value": "2045.03 RLU and 1694.52 RLU and 1928.99 RLU and 1704.05 RLU"},
      {"measurement": "RLU (cAMP, raw)", "setting": "[1]; Log [M] -6.52", "value": "1626.68 RLU and 1976 RLU and 1728.44 RLU and 1743.92 RLU"},
      {"measurement": "RLU (cAMP, raw)", "setting": "[1]; Log [M] -7", "value": "2133.7 RLU and 1895.07 RLU and 2053.37 RLU and 1981.36 RLU"},
      {"measurement": "RLU (cAMP, raw)", "setting": "[1]; Log [M] -7.52", "value": "1652.87 RLU and 1825.44 RLU and 1426.73 RLU and 1642.75 RLU"},
      {"measurement": "RLU (cAMP, raw)", "setting": "[1]; Log [M] -8", "value": "1859.96 RLU and 1760.58 RLU and 1940.89 RLU and 1974.81 RLU"},
      {"measurement": "RLU (cAMP, raw)", "setting": "[1]; Log [M] -8.52", "value": "2192.97 RLU and 1919.63 RLU"},
      {"measurement": "RLU (cAMP, raw)", "setting": "[1]; Log [M] -9", "value": "1940.02 RLU and 2105.38 RLU and 1999.67 RLU and 2166.54 RLU"},
      {"measurement": "RLU (cAMP, raw)", "setting": "[1]; Log [M] -9.52", "value": "2103.87 RLU and 2056.3 RLU and 1688.58 RLU"},
      {"measurement": "RLU (cAMP, raw)", "setting": "[1]; Log [M] -10", "value": "1933.98 RLU and 1927.18 RLU and 2266.97 RLU and 1930.96 RLU"},
      {"measurement": "RLU (cAMP, raw)", "setting": "[1]; Log [M] -10.52", "value": "1985.33 RLU and 1919.63 RLU and 2191.46 RLU and 1872.07 RLU"},
      {"measurement": "RLU (cAMP, raw)", "setting": "[1]; Log [M] -11", "value": "2121.99 RLU and 2313.03 RLU and 1878.86 RLU and 1896.98 RLU"},
      {"measurement": "RLU (cAMP, raw)", "setting": "[1]; Log [M] -11.52", "value": "2326.62 RLU and 1848.66 RLU and 1903.78 RLU and 1954.37 RLU"},
      {"measurement": "RLU (cAMP, raw)", "setting": "[1]; Log [M] -12", "value": "1756.54 RLU and 2242.81 RLU and 2177.87 RLU and 2001.94 RLU"},
      {"measurement": "activation of RXFP3 (cAMP inhibition)", "setting": "[1]; cAMP induced by 0.1 µM isoproterenol", "value": "does not activate"},
      {"measurement": "accumulation", "setting": "[2]; 10 mg/kg PO daily for 3 consecutive days", "value": "no accumulation"},
      {"measurement": "half-life", "setting": "[2]; C57BL/6J, mouse, in vivo, female mice, depending on the route of administration (3 mg/kg IV, 10 mg/kg PO)", "value": "4 to 6.5", "unit": "h"},
      {"measurement": "bioavailability", "setting": "[2]; C57BL/6J, mouse, plasma, 10 mg/kg PO, female mice", "value": "25 to 31", "unit": "%"},
      {"measurement": "maximum concentration in bone tissue", "setting": "[2]; IV administration, 3 mg/kg", "value": 1072, "unit": "ng/g"},
      {"measurement": "Plasma concentration", "setting": "[2]; IV, Time 0.083 h", "value": "2772 ng/mL and 2884 ng/mL"},
      {"measurement": "Plasma concentration", "setting": "[2]; IV, Time 0.25 h", "value": "1472 ng/mL and 1152 ng/mL"},
      {"measurement": "Plasma concentration", "setting": "[2]; IV, Time 0.5 h", "value": "786 ng/mL and 964 ng/mL"},
      {"measurement": "Plasma concentration", "setting": "[2]; IV, Time 1 h", "value": "583 ng/mL and 464 ng/mL"},
      {"measurement": "Plasma concentration", "setting": "[2]; IV, Time 3 h", "value": "259 ng/mL and 205 ng/mL"},
      {"measurement": "Plasma concentration", "setting": "[2]; IV, Time 7 h", "value": "84.8 ng/mL and 68.4 ng/mL"},
      {"measurement": "Plasma concentration", "setting": "[2]; IV, Time 24 h", "value": "4.08 ng/mL and 5.43 ng/mL"},
      {"measurement": "Plasma concentration", "setting": "[2]; IV, Time 48 h, N/A: Below detection level", "value": 0.868, "unit": "ng/mL"},
      {"measurement": "Plasma concentration", "setting": "[2]; PO (QD*3), Time 0.083 h", "value": "7.56 ng/mL and 5.2 ng/mL"},
      {"measurement": "Plasma concentration", "setting": "[2]; PO (QD*3), Time 0.25 h", "value": "57.1 ng/mL and 50.6 ng/mL"},
      {"measurement": "Plasma concentration", "setting": "[2]; PO (QD*3), Time 0.5 h", "value": "185 ng/mL and 245 ng/mL and 104 ng/mL"},
      {"measurement": "Plasma concentration", "setting": "[2]; PO (QD*3), Time 1 h", "value": "484 ng/mL and 346 ng/mL"},
      {"measurement": "Plasma concentration", "setting": "[2]; PO (QD*3), Time 3 h", "value": 344, "unit": "ng/mL"},
      {"measurement": "Plasma concentration", "setting": "[2]; PO (QD*3), Time 7 h", "value": "125 ng/mL and 179 ng/mL"},
      {"measurement": "Plasma concentration", "setting": "[2]; PO (QD*3), Time 24 h", "value": "3.9 ng/mL and 5.49 ng/mL"},
      {"measurement": "Plasma concentration", "setting": "[2]; PO (QD*3), Time 48 h, N/A: Below detection level", "value": 1, "unit": "ng/mL"},
      {"measurement": "maximum concentration in bone tissue", "setting": "[2]; PO administration, 10 mg/kg", "value": "170 to 300", "unit": "ng/g"},
      {"measurement": "Plasma concentration", "setting": "[2]; PO, Time 0.25 h", "value": "32.7 ng/mL and 59.5 ng/mL"},
      {"measurement": "Plasma concentration", "setting": "[2]; PO, Time 0.5 h", "value": "159 ng/mL and 69 ng/mL and 120 ng/mL"},
      {"measurement": "Plasma concentration", "setting": "[2]; PO, Time 1 h", "value": "406 ng/mL and 323 ng/mL"},
      {"measurement": "Plasma concentration", "setting": "[2]; PO, Time 3 h", "value": "247 ng/mL and 204 ng/mL"},
      {"measurement": "Plasma concentration", "setting": "[2]; PO, Time 7 h", "value": "141 ng/mL and 122 ng/mL"},
      {"measurement": "Plasma concentration", "setting": "[2]; PO, Time 24 h", "value": "8.08 ng/mL and 4.6 ng/mL"},
      {"measurement": "concentration at 0.5 h", "setting": "[2]; female, C57BL/6J, mouse, bone (long bones), 10 mg/kg, bone, PO, individual animals, read-out: Bone 6641 PO concentration", "value": 20.3, "unit": "ng/g"},
      {"measurement": "concentration at 0.083 h", "setting": "[2]; female, C57BL/6J, mouse, bone (long bones), iv, 3 mg/kg, bone, IV, 0.083 h, individual animals, read-out: Bone 6641 IV concentration", "value": 1180, "unit": "ng/g"},
      {"measurement": "concentration at 0.25 h", "setting": "[2]; female, C57BL/6J, mouse, bone (long bones), iv, 3 mg/kg, bone, IV, 0.25 h, individual animals, read-out: Bone 6641 IV concentration", "value": 1100, "unit": "ng/g"},
      {"measurement": "concentration at 0.5 h", "setting": "[2]; female, C57BL/6J, mouse, bone (long bones), iv, 3 mg/kg, bone, IV, individual animals, read-out: Bone 6641 IV concentration", "value": 711, "unit": "ng/g"},
      {"measurement": "concentration at 1 h", "setting": "[2]; female, C57BL/6J, mouse, bone (long bones), iv, 3 mg/kg, bone, IV, 1 h, individual animals, read-out: Bone 6641 IV concentration", "value": 632, "unit": "ng/g"},
      {"measurement": "concentration at 3 h", "setting": "[2]; female, C57BL/6J, mouse, bone (long bones), iv, 3 mg/kg, bone, IV, 3 h, individual animals, read-out: Bone 6641 IV concentration", "value": 337, "unit": "ng/g"},
      {"measurement": "concentration at 7 h", "setting": "[2]; female, C57BL/6J, mouse, bone (long bones), iv, 3 mg/kg, bone, IV, 7 h, individual animals, read-out: Bone 6641 IV concentration", "value": 87.9, "unit": "ng/g"}
    ]}
  ]
}
